Data from patent US9023405B2, “Pharmaceutical composition using stryphnodendron extracts for treating HPV infections” (priority 2010, dated 2015).

What was measured:
[1] = tested on: skin incisions; experiment: healing tests (skin incisions); assay type: in vivo, albino rabbits of the New Zealand lineage; conditions: daily topical treatment of incisions
Description: Thirty-six healthy adult albino rabbits of the New Zealand lineage weighing between 1.250 and 1.700 Kg were used for the healing tests. The animals were shaved and housed in individual cages at room temperature, in 12-hour light-dark cycles, with PURINA animal food and water ad libitum. The rabbits were anesthetized with local administration of lidocaine hydrochloride and inhalation of sulfuric ether. Four incisions were made on the skin of each rabbit until the subcutaneous layer was reached. A distance of 3 cm was maintained between each incision. The animals were divided into three groups. The group A, control, received NaCl 0.9% solution during the 14 days of treatment period. Group B was treated with rifamycin and group C received the ethanolic extract of barbatiman barks, resuspended in water (0.1 g mL^−1). The incisions remained open, and the rabbits were treated from the first day of the incision until the 14th day after the incision was made. On the 7th day, pieces were removed from ⅓ of the rabbits and part of the liver for histological analysis, and the animals were then killed. On 14th day, the remaining rabbits were killed, and the pieces and part of the liver were removed for histological analysis. […]

[2] = tested on: human papillomavirus (HPV) lesions; conditions: cited from earlier work; for rate of local relapses: direct application on moles

CO[C@H]1/C=C/O[C@@]2(C)Oc3c(C)c(O)c4c(O)c(cc(O)c4c3C2=O)NC(=O)/C(C)=C\C=C\[C@H](C)[C@H](O)[C@@H](C)[C@@H](O)[C@@H](C)[C@H](OC(C)=O)[C@@H]1C [rifamycin]
purulent secretion [1]: present purulent secretion

CC(C)Cn1cnc2c(N)nc3ccccc3c21 [Imiquimod]
cure rate ([2]; condyloma acuminata of external and perianal genitalia): 50-56%
patients with headache, myalgia, and flu-like symptoms ([2]; in vivo): less than 5%

O=C(O)C(Cl)Cl [dichloroacetic acid, dichloroacetic]
rate of local relapses [2]: around 30%

O=C(O)C(Cl)(Cl)Cl [trichloroacetic acid, trichloroacetic acids]
rate of local relapses [2]: around 30%
